Measured values from ChEMBL document CHEMBL1133958, “Derivatives of (2R,3R,4S)-2-aminomethylpyrrolidine-3,4-diol are selective alpha-mannosidase inhibitors” (Bioorg Med Chem Lett, 2001).
Activity calls are given as the source filed them. The calls are words filed in the database; no cut-off is given here.

Assays:
[1] = target: T1, Alpha-glucosidase (Oryza sativa Japonica Group) (UniProt Q9LGC6); experiment: Percentage inhibition of Alpha-glucosidase from Rice (maltase) at 1 mM; […]
T1 sequence (whole entry): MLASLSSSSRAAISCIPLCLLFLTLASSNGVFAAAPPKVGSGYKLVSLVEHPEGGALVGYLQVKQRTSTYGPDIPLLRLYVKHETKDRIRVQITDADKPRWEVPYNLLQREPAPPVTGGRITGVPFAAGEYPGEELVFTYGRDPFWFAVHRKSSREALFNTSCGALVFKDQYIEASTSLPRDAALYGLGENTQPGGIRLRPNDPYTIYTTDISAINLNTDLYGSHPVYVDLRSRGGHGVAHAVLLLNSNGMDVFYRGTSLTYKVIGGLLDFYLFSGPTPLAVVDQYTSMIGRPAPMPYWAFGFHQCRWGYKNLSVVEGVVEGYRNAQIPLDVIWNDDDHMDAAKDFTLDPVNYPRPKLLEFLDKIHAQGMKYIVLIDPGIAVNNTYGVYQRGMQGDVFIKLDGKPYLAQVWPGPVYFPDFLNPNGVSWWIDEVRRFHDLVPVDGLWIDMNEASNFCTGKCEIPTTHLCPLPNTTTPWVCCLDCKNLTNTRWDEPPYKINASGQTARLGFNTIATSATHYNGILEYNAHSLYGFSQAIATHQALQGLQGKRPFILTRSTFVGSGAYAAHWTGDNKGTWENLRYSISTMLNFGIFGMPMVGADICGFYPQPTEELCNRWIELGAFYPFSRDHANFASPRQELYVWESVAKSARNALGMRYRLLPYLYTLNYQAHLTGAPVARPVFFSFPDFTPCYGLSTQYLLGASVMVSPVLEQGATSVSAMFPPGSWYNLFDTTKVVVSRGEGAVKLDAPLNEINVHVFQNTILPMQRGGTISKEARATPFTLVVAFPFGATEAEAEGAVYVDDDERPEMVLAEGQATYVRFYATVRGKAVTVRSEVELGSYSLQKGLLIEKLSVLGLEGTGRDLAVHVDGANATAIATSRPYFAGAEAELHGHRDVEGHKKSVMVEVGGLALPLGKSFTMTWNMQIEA

[2] = tested on: Saccharomyces cerevisiae; experiment: Percentage inhibition of Alpha-glucosidase from Baker yeast (isomaltase) at 1 mM
[3] = tested on: Saccharomyces cerevisiae; experiment: Percentage inhibition of Alpha-glucosidase from Yeast (maltase) at 1 mM; […]
[4] = target: Glucoamylase (Aspergillus niger) (UniProt P69328); experiment: Percentage inhibition of Alpha-glucosidase from Aspergillus niger (amyloglucosidase) at 1 mM; No inhibition
Glucoamylase (Aspergillus niger), sequence (P69328 whole entry): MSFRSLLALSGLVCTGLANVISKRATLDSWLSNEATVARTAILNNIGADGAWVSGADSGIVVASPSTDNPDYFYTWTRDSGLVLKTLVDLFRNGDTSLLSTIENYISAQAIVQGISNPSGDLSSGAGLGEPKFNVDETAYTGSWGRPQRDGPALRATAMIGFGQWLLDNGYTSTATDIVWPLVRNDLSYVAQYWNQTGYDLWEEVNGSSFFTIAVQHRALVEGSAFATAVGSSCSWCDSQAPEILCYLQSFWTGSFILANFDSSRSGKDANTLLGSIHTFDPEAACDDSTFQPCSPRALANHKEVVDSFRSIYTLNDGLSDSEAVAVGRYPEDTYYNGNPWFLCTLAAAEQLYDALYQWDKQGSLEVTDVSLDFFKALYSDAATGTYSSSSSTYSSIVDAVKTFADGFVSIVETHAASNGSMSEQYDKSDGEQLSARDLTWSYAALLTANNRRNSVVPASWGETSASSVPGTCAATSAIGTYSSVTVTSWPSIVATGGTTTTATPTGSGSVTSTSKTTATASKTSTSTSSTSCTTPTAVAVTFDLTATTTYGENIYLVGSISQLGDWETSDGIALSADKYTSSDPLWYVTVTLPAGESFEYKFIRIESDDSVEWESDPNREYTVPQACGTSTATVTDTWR

[5] = target: Beta-glucosidase A (Caldicellulosiruptor saccharolyticus) (UniProt P10482); experiment: Percentage inhibition of Beta-Glucosidase from Caldocellum saccharol. at 1 mM
Beta-glucosidase A (Caldicellulosiruptor saccharolyticus), sequence (P10482 whole entry): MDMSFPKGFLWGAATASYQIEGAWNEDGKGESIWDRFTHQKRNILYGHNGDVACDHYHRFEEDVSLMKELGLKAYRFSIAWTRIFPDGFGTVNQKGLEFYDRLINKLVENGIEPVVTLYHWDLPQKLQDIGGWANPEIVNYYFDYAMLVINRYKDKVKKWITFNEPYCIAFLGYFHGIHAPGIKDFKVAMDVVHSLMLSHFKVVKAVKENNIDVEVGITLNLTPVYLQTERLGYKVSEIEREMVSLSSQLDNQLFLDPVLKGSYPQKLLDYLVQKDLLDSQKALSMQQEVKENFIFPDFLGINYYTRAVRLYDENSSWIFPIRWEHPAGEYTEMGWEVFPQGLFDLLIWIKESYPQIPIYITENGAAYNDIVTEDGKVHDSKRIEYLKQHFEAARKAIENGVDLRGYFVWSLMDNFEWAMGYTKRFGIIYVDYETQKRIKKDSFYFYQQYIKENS

[6] = target: T2, Glucoamylase 1 (Rhizopus oryzae) (UniProt P07683); experiment: Percentage inhibition of Alpha-glucosidase from Rhizopus mold (amyloglucosidase) at 1 mM concentration; No inhibition; conditions: Rhizopus arrhizus
T2 sequence (whole entry): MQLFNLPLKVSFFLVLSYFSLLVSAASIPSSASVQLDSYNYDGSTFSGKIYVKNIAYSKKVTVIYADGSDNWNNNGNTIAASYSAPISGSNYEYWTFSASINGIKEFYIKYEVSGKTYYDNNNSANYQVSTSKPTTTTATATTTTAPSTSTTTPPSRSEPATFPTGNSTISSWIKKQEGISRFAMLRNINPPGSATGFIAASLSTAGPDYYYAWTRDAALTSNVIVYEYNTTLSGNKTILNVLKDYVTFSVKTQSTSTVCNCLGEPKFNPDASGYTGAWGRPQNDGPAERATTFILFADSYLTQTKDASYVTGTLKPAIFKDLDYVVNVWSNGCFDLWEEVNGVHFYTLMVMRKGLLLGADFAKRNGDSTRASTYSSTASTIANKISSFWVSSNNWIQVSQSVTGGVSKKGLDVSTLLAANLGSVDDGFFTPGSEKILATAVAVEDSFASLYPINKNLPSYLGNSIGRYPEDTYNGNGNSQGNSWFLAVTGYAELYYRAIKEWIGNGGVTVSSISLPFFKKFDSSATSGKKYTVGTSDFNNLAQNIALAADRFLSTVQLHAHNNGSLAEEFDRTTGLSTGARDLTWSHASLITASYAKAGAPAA

[7] = Percentage inhibition of Beta-galactosidase from Aspergillus oryzae at 1 mM; No inhibition
[8] = target: T3, Beta-galactosidase (Bos taurus) (UniProt Q58D55); experiment: Percentage inhibition of Beta-galactosidase from Bovine liver at 1 mM concentration; No inhibition
T3 sequence (whole entry): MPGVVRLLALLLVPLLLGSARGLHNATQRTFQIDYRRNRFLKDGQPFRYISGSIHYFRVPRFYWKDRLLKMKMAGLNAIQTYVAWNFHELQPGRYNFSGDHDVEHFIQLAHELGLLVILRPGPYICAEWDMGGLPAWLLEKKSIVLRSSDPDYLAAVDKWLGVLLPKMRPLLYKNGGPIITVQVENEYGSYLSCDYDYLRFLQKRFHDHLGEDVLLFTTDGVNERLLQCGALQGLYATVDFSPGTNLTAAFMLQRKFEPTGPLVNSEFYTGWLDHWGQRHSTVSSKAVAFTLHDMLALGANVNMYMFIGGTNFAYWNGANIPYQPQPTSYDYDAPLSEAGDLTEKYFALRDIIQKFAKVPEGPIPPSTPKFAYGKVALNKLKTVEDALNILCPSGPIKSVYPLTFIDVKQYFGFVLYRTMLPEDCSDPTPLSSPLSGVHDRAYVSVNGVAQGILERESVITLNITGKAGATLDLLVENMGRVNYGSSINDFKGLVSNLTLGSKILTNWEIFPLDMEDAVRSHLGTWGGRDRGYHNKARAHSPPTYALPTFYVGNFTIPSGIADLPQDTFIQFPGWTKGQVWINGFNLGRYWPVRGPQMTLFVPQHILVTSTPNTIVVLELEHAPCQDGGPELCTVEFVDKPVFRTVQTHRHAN

[9] = target: T4, Beta-galactosidase (Aspergillus niger) (UniProt P29853); experiment: Percentage inhibition of Beta-galactosidase from Aspergillus niger at 1 mM concentration; […]
T4 sequence (whole entry): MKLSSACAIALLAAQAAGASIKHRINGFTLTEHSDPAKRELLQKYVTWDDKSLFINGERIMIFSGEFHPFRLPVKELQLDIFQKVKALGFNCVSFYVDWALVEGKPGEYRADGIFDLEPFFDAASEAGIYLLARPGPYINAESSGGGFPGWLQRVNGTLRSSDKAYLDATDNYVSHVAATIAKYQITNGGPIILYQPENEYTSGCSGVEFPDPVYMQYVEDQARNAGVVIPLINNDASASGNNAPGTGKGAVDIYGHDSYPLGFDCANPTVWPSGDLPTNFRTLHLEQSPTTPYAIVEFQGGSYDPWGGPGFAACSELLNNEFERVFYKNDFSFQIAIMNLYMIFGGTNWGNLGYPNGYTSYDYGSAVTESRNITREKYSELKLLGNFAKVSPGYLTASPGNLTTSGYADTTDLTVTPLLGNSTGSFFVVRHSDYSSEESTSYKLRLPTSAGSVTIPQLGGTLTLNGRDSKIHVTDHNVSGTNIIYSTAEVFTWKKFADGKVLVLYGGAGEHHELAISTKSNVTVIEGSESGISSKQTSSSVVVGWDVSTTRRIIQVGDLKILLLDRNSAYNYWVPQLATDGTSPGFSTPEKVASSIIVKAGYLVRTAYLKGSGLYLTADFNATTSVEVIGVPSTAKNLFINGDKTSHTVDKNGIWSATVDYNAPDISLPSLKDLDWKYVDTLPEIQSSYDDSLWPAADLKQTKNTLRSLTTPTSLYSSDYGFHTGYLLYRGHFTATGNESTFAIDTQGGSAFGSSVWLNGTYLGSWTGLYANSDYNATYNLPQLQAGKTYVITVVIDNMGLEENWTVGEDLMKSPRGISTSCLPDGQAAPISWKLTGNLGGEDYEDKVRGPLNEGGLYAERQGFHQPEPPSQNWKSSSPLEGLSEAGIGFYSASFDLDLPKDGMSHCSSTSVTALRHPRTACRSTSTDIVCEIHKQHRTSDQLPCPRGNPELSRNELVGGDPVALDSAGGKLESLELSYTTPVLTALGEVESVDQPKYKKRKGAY

[10] = target: Beta-galactosidase (Escherichia coli K-12) (UniProt P00722); experiment: Percentage inhibition of Beta-galactosidase from Escherichia coli at 1 mM concentration; No inhibition
Beta-galactosidase (Escherichia coli K-12), sequence (P00722 whole entry): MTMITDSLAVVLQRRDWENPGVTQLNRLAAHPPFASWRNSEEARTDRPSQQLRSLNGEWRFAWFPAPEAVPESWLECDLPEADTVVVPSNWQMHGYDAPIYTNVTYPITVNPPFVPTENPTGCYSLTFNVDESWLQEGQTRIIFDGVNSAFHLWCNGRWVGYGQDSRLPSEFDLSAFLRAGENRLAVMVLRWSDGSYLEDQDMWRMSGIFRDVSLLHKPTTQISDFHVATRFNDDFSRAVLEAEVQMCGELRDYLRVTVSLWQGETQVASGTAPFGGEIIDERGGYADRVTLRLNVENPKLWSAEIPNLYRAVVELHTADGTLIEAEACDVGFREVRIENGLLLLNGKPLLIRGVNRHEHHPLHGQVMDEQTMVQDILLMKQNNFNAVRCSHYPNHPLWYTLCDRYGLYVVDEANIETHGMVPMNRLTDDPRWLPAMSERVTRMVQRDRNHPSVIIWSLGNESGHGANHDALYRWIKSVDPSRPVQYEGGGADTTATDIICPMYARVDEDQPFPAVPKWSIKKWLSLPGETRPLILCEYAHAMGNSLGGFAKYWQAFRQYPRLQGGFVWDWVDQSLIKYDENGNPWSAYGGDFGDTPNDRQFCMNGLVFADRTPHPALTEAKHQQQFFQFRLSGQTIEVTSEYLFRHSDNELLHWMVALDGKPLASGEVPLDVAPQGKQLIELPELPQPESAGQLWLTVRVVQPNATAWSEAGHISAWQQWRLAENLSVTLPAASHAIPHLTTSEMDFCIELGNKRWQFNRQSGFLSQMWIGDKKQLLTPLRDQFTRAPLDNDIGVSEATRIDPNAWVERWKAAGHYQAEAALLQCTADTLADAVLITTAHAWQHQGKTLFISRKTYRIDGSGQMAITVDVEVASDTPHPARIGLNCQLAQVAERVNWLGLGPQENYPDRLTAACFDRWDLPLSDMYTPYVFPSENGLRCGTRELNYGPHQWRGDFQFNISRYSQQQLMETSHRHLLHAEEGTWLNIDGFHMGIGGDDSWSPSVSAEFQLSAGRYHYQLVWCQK

[11] = tested on: Alpha-mannosidase (Prunus dulcis); experiment: Percentage inhibition of Alpha-mannosidase from Almond at 1 mM
[12] = tested on: Saccharomyces cerevisiae; experiment: Percentage inhibition of Alpha-glucosidase from Baker yeast (isomaltase) at 1 mM; No inhibition
[13] = target: Beta-glucosidase A (Caldicellulosiruptor saccharolyticus) (UniProt P10482); experiment: Percentage inhibition of Beta-Glucosidase from Caldocellum saccharol. at 1 mM; No inhibition
[14] = target: Beta-galactosidase (Escherichia coli K-12) (UniProt P00722); experiment: Percentage inhibition of Beta-galactosidase from Escherichia coli at 1 mM concentration
[15] = target: T3, Beta-galactosidase (Bos taurus); experiment: Percentage inhibition of Beta-galactosidase from Bovine liver at 1 mM concentration
[16] = Inhibitory activity towards Alpha-glucosidase from Yeast (maltase); design: species or system Saccharomyces cerevisiae
[17] = tested on: Saccharomyces cerevisiae; experiment: Percentage inhibition of Alpha-glucosidase from Yeast (maltase) at 1 mM
[18] = target: T5, Beta-glucosidase A (Caldicellulosiruptor saccharolyticus, UniProt P10482); experiment: Inhibitory activity towards Beta-Glucosidase from Caldocellum saccharol
T5 sequence (P10482 whole entry): as the sequence (P10482 whole entry) above

[19] = target: T5, Beta-glucosidase A; experiment: Inhibitory activity towards Beta-Glucosidase from Caldocellum saccharol.
[20] = target: T4, Beta-galactosidase (Aspergillus niger); experiment: Percentage inhibition of Beta-galactosidase from Aspergillus niger at 1 mM concentration
[21] = Inhibitory activity towards Alpha-glucosidase from Baker yeast (isomaltase); design: species or system Saccharomyces cerevisiae
[22] = Percentage inhibition of Beta-galactosidase from Jack bean at 1 mM concentration; No inhibition; conditions: Canavalia ensiformis
[23] = Percentage inhibition of Beta-galactosidase from Aspergillus oryzae at 1 mM

Row | SMILES | inhibition [1] | inhibition [2] [%] | inhibition [3] | inhibition [4] | inhibition [5] [%] | inhibition [6] | inhibition [7] | inhibition [8] | inhibition [9] | inhibition [10] | inhibition [11] [%] | inhibition [12] | inhibition [14] [%] | inhibition [17] [%] | inhibition [20] [%] | IC50 [21] [µM] | Ki [21] [µM] | inhibition [22] | further results
1 | OC1CNC(CNCc2cccs2)C1O (stereo not given) | inactive | 23 | inactive | inactive | 38 | inactive | inactive | inactive | inactive | inactive | 68 |  |  |  |  |  |  |  | 
2 | OC1CNC(CNCc2ccccc2)C1O (stereo not given) | inactive |  | inactive | inactive |  | inactive | inactive |  | inactive |  |  | inactive | 24 |  |  |  |  |  | inhibition [13]: inactive; inhibition [15]: 26%
3 | OC1CNC(CNCc2ccco2)C1O (stereo not given) | inactive | 94 |  | inactive | 75 | inactive | inactive | inactive |  | inactive | 29 |  |  | 66 | 39 | 65 | 45 |  | IC50 [16]: 280 µM; Ki [18]: 60 µM; IC50 [19]: 250 µM
4 | C[C@@H](NCC1NCC(O)C1O)c1ccccc1 (stereo not given in full) | inactive | 34 | inactive | inactive | 49 | inactive | inactive | inactive | inactive |  | 48 |  | 34 |  |  |  |  |  | 
5 | CC(=O)N(Cc1ccccc1)CC1NCC(O)C1O (stereo not given) | inactive | 33 | inactive | inactive | 43 | inactive | inactive | inactive | inactive | inactive |  |  |  |  |  |  |  | inactive | 
6 | OCC(O)[C@H]1NC[C@H](O)[C@@H]1O (stereo not given in full) | inactive |  | inactive | inactive | 40 | inactive | inactive |  | inactive | inactive |  | inactive |  |  |  |  |  | inactive | inhibition [15]: 32%
7 | OC1CNC(CNCn2ccnc2)C1O (stereo not given) | inactive | 90 |  | inactive | 76 | inactive |  | inactive |  |  | 59 |  | 49 | 55 | 41 | 120 | 40 |  | IC50 [16]: 610 µM; Ki [18]: 120 µM; IC50 [19]: 290 µM; inhibition [23]: 24%
8 | OC1CNC(CCNc2ccccc2)C1O (stereo not given) | inactive |  | inactive | inactive |  | inactive | inactive | inactive | inactive | inactive |  | inactive |  |  |  |  |  | inactive | inhibition [13]: inactive
9 | OC1CNC(CNC2CCCC2)C1O (stereo not given) | inactive | 92 |  | inactive | 29 | inactive | inactive | inactive |  | inactive | 53 |  |  | 30 | 26 | 170 | 71 |  | 
